Results on 20 compounds are retold here after patent publication US7981912B2, “Indole acetic acids exhibiting CRTH2 receptor antagonism and uses thereof” (Wyeth LLC, priority 2004, dated 2011).

Molecules are shown by their SMILES. Some results are limits rather than exact numbers.

Broadly, the IC50 is the concentration that gives 50% inhibition. By Ki is commonly meant the equilibrium dissociation constant of an inhibitor or competing ligand from its target.

One assay deals with T1, human CRTH2 (Homo sapiens, UniProt Q9Y5Y4).
T1 sequence (Q9Y5Y4 1-395): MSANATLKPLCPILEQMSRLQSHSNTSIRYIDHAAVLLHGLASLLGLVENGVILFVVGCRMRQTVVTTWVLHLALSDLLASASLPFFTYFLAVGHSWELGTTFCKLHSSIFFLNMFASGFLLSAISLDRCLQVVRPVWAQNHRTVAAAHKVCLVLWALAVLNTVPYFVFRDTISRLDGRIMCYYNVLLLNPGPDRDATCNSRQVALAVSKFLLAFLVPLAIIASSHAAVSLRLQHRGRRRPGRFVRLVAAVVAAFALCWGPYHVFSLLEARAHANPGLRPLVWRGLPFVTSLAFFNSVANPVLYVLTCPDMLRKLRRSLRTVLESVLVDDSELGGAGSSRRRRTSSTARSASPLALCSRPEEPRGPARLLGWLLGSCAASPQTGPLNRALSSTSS
The assay is described as follows: CRTH2 fluorescent imaging assay (intracellular calcium, antagonist mode). The conditions noted are these: HT1080-hCRTH2 cells; block of calcium increase caused by 500 nM PGD2. The arrangement: expressed in transfected cells; host or cells: HT1080-hCRTH2. The format is cell-based. As for the experimental part:
The ability of the disclosed compounds to act as agonists for the hCRTH2 receptor was determined by their ability to cause increases in intracellular calcium via binding to the CRTH2 receptor.
Assays were performed on HEK 293EBNA-hCRTH2 cells that had been grown in DMEM media containing 10% FBS, […] puromycin and 1% penicillin/streptomycin/glutamine (PSG) at 37° C. in 5% CO2 or on HT1080-hCRTH2 cells (a HT1080 cell line stably expressing human CRTH2) that had been grown in alphaMEM media containing 10% FBS, 500 μg/ml hygromycin, 200 nM methotrexate and 1% PSG at 37° C. in 5% CO2.
For the assay, HEK 293EBNA-hCRTH2 cells or HT1080-hCRTH2 cells were grown to approximately 90% confluency and then dislodged from the plate with Trypsin-EDTA, resuspended in DMEM media, seeded in 384 well plates at 2×10^4 cells per well and incubated overnight at 37° C. The cells were loaded with a calcium sensing dye by removing the growth media and replacing it with 30 μL of dye loading Ringer's buffer (136 mM […], 5.4 mM D-Glucose, 20 mM Hepes pH 7.4, 2.1 mM MgCl2, 0.8 mM CaCl2, 0.2% BSA with 1× Calcium3Dye (Molecular Devices) and 2.5 mM Probenecid (Sigma)) per well. The cells were incubated at 37° C. for 1 hour to allow the dye to enter the cells. Compounds were serially diluted in DMSO and then diluted to 4× their final concentration with Ringer's buffer. The compounds were added to a 384 well plate in quadruplicate. In addition to test compounds, several wells contained Ringer's buffer with DMSO. These wells serve as control wells. 10 μL was transferred from compound/control plate to the plate containing cells loaded with dye by a fluorescent imaging plate reader (Molecular Devices). The fluorescence was measured every 4 seconds for 4 minutes. These measurements indicated the level of intracellular calcium. Increases in fluorescence relative to wells containing buffer only indicated an agonist effect of the compound. Measurement at various compound concentrations allowed one to determine the EC50 for these compounds. Following the 4 minute incubation with compound, 20 μL of Ringer's buffer with either 10 nM or 500 nM PGD2 (approximate EC75 for PGD2 in HEK 293EBNA-hCRTH2 cells and HT1080-hCRTH2 cells, respectively) was added to the wells. Inhibition by the compounds of the calcium response due to antagonism of PGD2 action on CRTH2 is reflected by a decrease in fluorescent signal relative to wells containing no compound. The fluorescence was measured every 2 seconds for 10 seconds before addition of PGD2 and every 2 seconds for 110 seconds following addition. Measurement at various compound concentrations allowed one to determine the IC50 for these compounds. EC50 and IC50 values were determined from the experimental results by nonlinear regression using the Prism 4.0 software.
For orientation: Calcium assays in cells follow changes in intracellular calcium, usually with a dye or a luminescent sensor.
For `Cc1c(-c2nn(Cc3ccc(F)cc3)c(=O)c3ccccc23)c2cc(Cl)ccc2n1CC(=O)O` [Example 24, {5-Chloro-3-[3-(4-fluoro-benzyl)-4-oxo-3,4-dihydro-phthalazin-1-yl]-2-methyl-indol-1-yl}-acetic acid], the IC50 turned out to be 60 nM.
On the same count and under the same terms, for `Cc1c(-c2nn(Cc3ccccc3)c(=O)c3ccccc23)c2cc(Cl)ccc2n1CC(=O)O` [Example 16, [3-(3-Benzyl-4-oxo-3,4-dihydro-phthalazin-1-yl)-5-chloro-2-methyl-indol-1-yl]-acetic acid] the value was 19 nM; for `Cc1onc(-c2ccccc2)c1CN1C(c2c(C)n(CC(=O)O)c3ccc(Cl)cc23)c2ccccc2S1(=O)=O` (stereo not drawn) [Example 61, {5-Chloro-2-methyl-3-[2-(5-methyl-3-phenyl-isoxazol-4-ylmethyl)-1,1-dioxo-2,3-dihydro-1H-1λ^6-benzo[d]isothiazol-3-yl]-indol-1-yl}-acetic acid], 170 nM.
As to `Cc1noc(C)c1CN1C(c2c(C)n(CC(=O)O)c3ccccc23)c2ccc(F)cc2S1(=O)=O` (stereo not drawn) [Example 62, {3-[2-(3,5-Dimethyl-isoxazol-4-ylmethyl)-6-fluoro-1,1-dioxo-2,3-dihydro-1H-1λ^6-benzo[d]isothiazol-3-yl]-2-methyl-indol-1-yl}-acetic acid], the IC50 is 22 nM.

The target of a further assay is T1, human CRTH2. Nature of the assay: CRTH-2 binding assay (scintillation proximity assay, inhibition of 3H-PGD2 binding). Also noted: expressed in transfected cells; host or cells: HEK 293EBNA-hCRTH2 (membrane preparation). To be noted: inhibition of 3H-PGD2 (3.6 nM) binding to HEK 293EBNA-hCRTH2 membranes; Ki calculated from IC50. In outline: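 Membranes from HEK 293EBNA cells stably expressing human CRTH2 (~20 μg protein/100 μL) with SPA beads and 3.6 nM 3H-PGD2 in 10 mM Hepes pH 7.4, 1 mM EDTA, 10 mM MnCl2, glycerol, 2 h at room temperature, seven compound concentrations in triplicate. Nonspecific binding defined with indomethacin; IC50 converted to Ki using Kd and radioligand concentration.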
Turning to `Cc1c(-c2nn(Cc3ccc(F)cc3)c(=O)c3ccccc23)c2cc(Cl)ccc2n1CC(=O)O` [Example 24, {5-Chloro-3-[3-(4-fluoro-benzyl)-4-oxo-3,4-dihydro-phthalazin-1-yl]-2-methyl-indol-1-yl}-acetic acid], the Ki was below 100 nM.
Same read-out and setting: next, `Cc1c(-c2nn(Cc3ccccc3)c(=O)c3ccccc23)c2cc(Cl)ccc2n1CC(=O)O` [Example 16, [3-(3-Benzyl-4-oxo-3,4-dihydro-phthalazin-1-yl)-5-chloro-2-methyl-indol-1-yl]-acetic acid]: below 100 nM; `Cc1onc(-c2ccccc2)c1CN1C(c2c(C)n(CC(=O)O)c3ccc(Cl)cc23)c2ccccc2S1(=O)=O` (stereo not drawn) [Example 61, {5-Chloro-2-methyl-3-[2-(5-methyl-3-phenyl-isoxazol-4-ylmethyl)-1,1-dioxo-2,3-dihydro-1H-1λ^6-benzo[d]isothiazol-3-yl]-indol-1-yl}-acetic acid]: below 100 nM; `COc1ccc(CN2N=C(c3c(C)n(CC(=O)O)c4ccc(F)cc34)c3ccccc3S2(=O)=O)cc1` [Example 80, {3-[2-(4-Methoxy-benzyl)-1,1-dioxo-1,2-dihydro-1λ^6-benzo[e][1,2,3]thiadiazin-4-yl]-5-fluoro-2-methyl-indol-1-yl}-acetic acid]: below 100 nM.
Same read-out and setting: next, `Cc1c(C2=NN(Cc3cccc(F)c3)S(=O)(=O)c3ccccc32)c2cc(F)ccc2n1CC(=O)O` [Example 82, {3-[2-(3-Fluoro-benzyl)-1,1-dioxo-1,2-dihydro-1λ^6-benzo[e][1,2,3]thiadiazin-4-yl]-5-fluoro-2-methyl-indol-1-yl}-acetic acid]: below 100 nM.
The same measure, in the same setting: next, `O=C(O)Cn1cc(C2NS(=O)(=O)c3ccccc32)c2ccc(Cl)cc21` (stereo not drawn) [Example 12, [6-Chloro-3-(1,1-dioxo-2,3-dihydro-1H-1λ^6-benzo[d]isothiazol-3-yl)-indol-1-yl]-acetic acid]: below 1000 nM; `Cc1c(C2NS(=O)(=O)c3ccccc32)c2cc(Cl)ccc2n1CC(=O)O` (stereo not drawn) [Example 6, [5-Chloro-3-(1,1-dioxo-2,3-dihydro-1H-1λ^6-benzo[d]isothiazol-3-yl)-2-methyl-indol-1-yl]-acetic acid]: below 1000 nM; `O=C(O)Cn1cc(-c2nn(Cc3ccccc3)c(=O)c3ccccc23)c2ccccc21` [Example 15, [3-(3-Benzyl-4-oxo-3,4-dihydro-phthalazin-1-yl)-indol-1-yl]-acetic acid]: below 1000 nM.
Regarding `Cc1noc(C)c1CN1C(c2c(C)n(CC(=O)O)c3ccccc23)c2ccc(F)cc2S1(=O)=O` (stereo not drawn) [Example 62, {3-[2-(3,5-Dimethyl-isoxazol-4-ylmethyl)-6-fluoro-1,1-dioxo-2,3-dihydro-1H-1λ^6-benzo[d]isothiazol-3-yl]-2-methyl-indol-1-yl}-acetic acid], the inhibitory constant (Ki) was below 100 nM.
Take `Cc1c(C2=NN(Cc3ccccc3Cl)S(=O)(=O)c3ccccc32)c2cc(F)ccc2n1CC(=O)O` [Example 76, {3-[2-(2-Chloro-benzyl)-1,1-dioxo-1,2-dihydro-1λ^6-benzo[e][1,2,3]thiadiazin-4-yl]-5-fluoro-2-methyl-indol-1-yl}-acetic acid]: the Ki is below 100 nM.
The same measure, in the same setting: next, `Cc1c(C2c3ccccc3S(=O)(=O)N2CCCOc2ccccc2)c2ccccc2n1CC(=O)O` (stereo not drawn) [Example 46, {3-[1,1-Dioxo-2-(3-phenoxy-propyl)-2,3-dihydro-1H-1λ^6-benzo[d]isothiazol-3-yl]-2-methyl-indol-1-yl}-acetic acid]: below 1000 nM; `Cc1ccc2c(c1)c(C1NS(=O)(=O)c3ccccc31)cn2CC(=O)O` (stereo not drawn) [Example 2, [3-(1,1-Dioxo-2,3-dihydro-1H-1λ^6-benzo[d]isothiazol-3-yl)-5-methyl-indol-1-yl]-acetic acid]: below 10000 nM.
Same read-out and setting: next, `Cc1noc(C)c1CN1N=C(c2c(C)n(CC(=O)O)c3ccc(F)cc23)c2ccccc2S1(=O)=O` [Example 90, {3-[2-(3,5-Dimethyl-isoxazol-4-ylmethyl)-1,1-dioxo-1,2-dihydro-1λ^6-benzo[e][1,2,3]thiadiazin-4-yl]-5-fluoro-2-methyl-indol-1-yl}-acetic acid]: below 100 nM.
Still for that read-out and setting: for `Cc1ccc2c(c1)c(C1NS(=O)(=O)c3ccccc31)c(C)n2CC(=O)O` (stereo not drawn) [Example 7, [3-(1,1-Dioxo-2,3-dihydro-1H-1λ^6-benzo[d]isothiazol-3-yl)-2,5-dimethyl-indol-1-yl]-acetic acid] the value was below 10000 nM; for `O=C(O)Cn1cc(C2NS(=O)(=O)c3ccccc32)c2c(Cl)cccc21` (stereo not drawn) [Example 11, [4-Chloro-3-(1,1-dioxo-2,3-dihydro-1H-1λ^6-benzo[d]isothiazol-3-yl)-indol-1-yl]-acetic acid], below 1000 nM.
As for `Cc1c(C2=NN(Cc3ccccc3)C(=O)C(C)(C)C2)c2cc(Cl)ccc2n1CC(=O)O` [Example 73, [3-(1-Benzyl-5,5-dimethyl-6-oxo-1,4,5,6-tetrahydro-pyridazin-3-yl)-5-chloro-2-methyl-indol-1-yl]-acetic acid], the Ki is below 100 nM.
On the same count and under the same terms, for `Cc1noc(C)c1CN1C(c2c(C)n(CC(=O)O)c3ccccc23)CCS1(=O)=O` (stereo not drawn) [Example 69, {3-[2-(3,5-Dimethyl-isoxazol-4-ylmethyl)-1,1-dioxo-λ^6-isothiazolidin-3-yl]-2-methyl-indol-1-yl}-acetic acid] the value was below 100 nM; for `CCCN1N=C(c2c(C)n(CC(=O)O)c3ccc(F)cc23)c2ccccc2S1(=O)=O` [Example 92, [3-(2-Propyl-1,1-dioxo-1,2-dihydro-1λ^6-benzo[e][1,2,3]thiadiazin-4-yl)-5-fluoro-2-methyl-indol-1-yl]-acetic acid], below 100 nM; for `Cc1c(C2c3ccccc3S(=O)(=O)N2Cc2ccc(F)cc2)c2cc(Cl)ccc2n1CC(=O)O` (stereo not drawn) [Example 60, {5-Chloro-3-[2-(4-fluoro-benzyl)-1,1-dioxo-2,3-dihydro-1H-1λ^6-benzo[d]isothiazol-3-yl]-2-methyl-indol-1-yl}-acetic acid], below 1000 nM.
Still for that read-out and setting: next, `Cc1c(C2NS(=O)(=O)c3cc(F)ccc32)c2ccccc2n1CC(=O)O` (stereo not drawn) [Example 13, [3-(6-Fluoro-1,1-dioxo-2,3-dihydro-1H-1λ^6-benzo[d]isothiazol-3-yl)-2-methyl-indol-1-yl]-acetic acid]: below 1000 nM.
